Reference: patent US6613747B2, “6-O-carbamoyl ketolide antibacterials” (Ortho-McNeil Pharmaceutical, Inc., priority 2000, dated 2003)
≈ marks a conversion by molar mass, not a printed value.

Tests used:
Assay in all cases: MIC, microdilution broth method (NCCLS)
Assay type in all cases: cell-based
S. pneumoniae ATCC49619 = conditions: D: S. pneumoniae ATCC49619, 35° C., 16-20 hours
Procedure, shortened: (§1)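 NCCLS M7-A4 broth microdilution using two-fold serial drug dilutions in cation-adjusted Mueller-Hinton broth, with inoculum ~5×10^4 CFU/well. Trays were incubated at 35 °C for 16–20 h, and growth was compared against compound-free controls.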

S. aureus ATCC29213 = conditions: B: S. aureus ATCC29213, 35° C., 16-20 hours
Procedure, shortened: as §1

E. faecalis ATCC29212 = conditions: C: E. faecalis ATCC29212, 35° C., 16-20 hours
Procedure, shortened: as §1

E. coli OC2605 = conditions: A: E. coli OC2605, 35° C., 16-20 hours
Procedure, shortened: as §1

H. influenzae ATCC49247 = conditions: E: H. influenzae ATCC49247, 35° C., 16-20 hours
Procedure, shortened: as §1

MIC (S. pneumoniae ATCC49619)	MIC (S. aureus ATCC29213) [µg/mL]	MIC (E. faecalis ATCC29212) [µg/mL]	MIC (E. coli OC2605) [µg/mL]	MIC (H. influenzae ATCC49247) [µg/mL]	Structure (SMILES)
0.06 µg/mL (≈ 0.0703 µM)	0.25 (≈ 0.293 µM)	0.12 (≈ 0.141 µM)	>16	4 (≈ 4.68 µM)	CC[C@H]1OC(=O)[C@H](C)C(=O)[C@H](C)[C@@H](O[C@@H]2O[C@H](C)C[C@H](N(C)C)[C@H]2O)[C@](C)(OC(=O)NC/C=C/c2ccc(-n3cccn3)c(OC)c2)C[C@@H](C)C(=O)[C@H](C)[C@H]2NC(=O)O[C@@]21C [Compound 84]
0.06 µg/mL (≈ 0.0692 µM)	2 (≈ 2.31 µM)	0.5 (≈ 0.577 µM)	>16	>16	CC[C@H]1OC(=O)[C@H](C)C(=O)[C@H](C)[C@@H](O[C@@H]2O[C@H](C)C[C@H](N(C)C)[C@H]2O)[C@](C)(OC(=O)NCCN(C)Cc2ccc(-c3ncccn3)cc2)C[C@@H](C)C(=O)[C@H](C)[C@H]2NC(=O)O[C@@]21C [Compound 117]
1 µg/mL (≈ 1.46 µM)	16 (≈ 23.4 µM)	8 (≈ 11.7 µM)	>16	16 (≈ 23.4 µM)	CC[C@H]1OC(=O)[C@H](C)C(=O)[C@H](C)[C@@H](O[C@@H]2O[C@H](C)C[C@H](N(C)C)[C@H]2O)[C@](C)(OC(=O)NCCN)C[C@@H](C)C(=O)[C@H](C)[C@H]2NC(=O)O[C@@]21C [Compound 110]
0.03 µg/mL (≈ 0.0379 µM)	0.25 (≈ 0.316 µM)	0.12 (≈ 0.152 µM)	8 (≈ 10.1 µM)	1 (≈ 1.26 µM)	CCC1OC(=O)C(C)(F)C(=O)C(C)C(OC2OC(C)CC(N(C)C)C2O)C(C)(OC(=O)NCC=Cc2ccccc2)CC(C)C(=NO)C(C)C2NC(=O)OC12C (stereo not shown) [Compound 129]
0.03 µg/mL (≈ 0.0368 µM)	0.5 (≈ 0.613 µM)	0.06 (≈ 0.0735 µM)	16 (≈ 19.6 µM)	2 (≈ 2.45 µM)	CC[C@H]1OC(=O)[C@H](C)C(=O)[C@H](C)[C@@H](O[C@@H]2O[C@H](C)C[C@H](N(C)C)[C@H]2O)[C@](C)(OC(=O)NCc2ccc(-n3cccn3)cc2F)C[C@@H](C)C(=O)[C@H](C)[C@H]2NC(=O)O[C@@]21C [Compound 73]
0.5 µg/mL (≈ 0.672 µM)	16 (≈ 21.5 µM)	2 (≈ 2.69 µM)	>16	8 (≈ 10.8 µM)	CC[C@H]1OC(=O)[C@H](C)C(=O)[C@H](C)[C@@H](O[C@@H]2O[C@H](C)C[C@H](N(C)C)[C@H]2O)[C@](C)(OC(=O)N2Cc3ccccc3C2)C[C@@H](C)C(=O)[C@H](C)[C@H]2NC(=O)O[C@@]21C [Compound 138]
≦0.015 μg/mL	0.5 (≈ 0.625 µM)	0.06 (≈ 0.075 µM)	16 (≈ 20 µM)	1 (≈ 1.25 µM)	CC[C@H]1OC(=O)[C@H](C)C(=O)[C@H](C)[C@@H](O[C@@H]2O[C@H](C)C[C@H](N(C)C)[C@H]2O)[C@](C)(OC(=O)NCc2cn(-c3ncccn3)cn2)C[C@@H](C)C(=O)[C@H](C)[C@H]2NC(=O)O[C@@]21C [Compound 93]
0.12 µg/mL (≈ 0.141 µM)	1 (≈ 1.18 µM)	0.25 (≈ 0.294 µM)	>16	>16	CC[C@H]1OC(=O)[C@H](C)C(=O)[C@H](C)[C@@H](O[C@@H]2O[C@H](C)C[C@H](N(C)C)[C@H]2O)[C@](C)(OC(=O)N(C)C/C=C/c2ccc(-c3ncccn3)cc2)C[C@@H](C)C(=O)[C@H](C)[C@H]2NC(=O)O[C@@]21C [Compound 85]
0.03 µg/mL (≈ 0.0356 µM)	0.25 (≈ 0.297 µM)	0.12 (≈ 0.143 µM)	8 (≈ 9.5 µM)	2 (≈ 2.38 µM)	CCC1OC(=O)C(C)(F)C(=O)C(C)C(OC2OC(C)CC(N(C)C)C2O)C(C)(OC(=O)NCC=Cc2cnc3ccccc3c2)CC(C)C(=NO)C(C)C2NC(=O)OC12C (stereo not shown) [Compound 127]
0.5 µg/mL (≈ 0.579 µM)	4 (≈ 4.63 µM)	2 (≈ 2.31 µM)	>16	>16	CC[C@H]1OC(=O)[C@H](C)C(=O)[C@H](C)[C@@H](O[C@@H]2O[C@H](C)C[C@H](N(C)C)[C@H]2O)[C@](C)(OC(=O)NCC2CC(c3ccc(-c4ncccn4)cc3)C2)C[C@@H](C)C(=O)[C@H](C)[C@H]2NC(=O)O[C@@]21C (stereo partly shown) [Compound 135]

The remaining lines, values behind:

Structure (SMILES)	MIC (S. pneumoniae ATCC49619)	MIC (S. aureus ATCC29213) [µg/mL]	MIC (E. faecalis ATCC29212) [µg/mL]	MIC (E. coli OC2605) [µg/mL]	MIC (H. influenzae ATCC49247) [µg/mL]
CC[C@H]1OC(=O)[C@H](C)C(=O)[C@H](C)[C@@H](O[C@@H]2O[C@H](C)C[C@H](N(C)C)[C@H]2O)[C@](C)(OC(=O)NCC#Cc2ccccc2)C[C@@H](C)C(=O)[C@H](C)[C@H]2NC(=O)O[C@@]21C [Compound 13]	0.06 µg/mL (≈ 0.0794 µM)	1 (≈ 1.32 µM)	0.25 (≈ 0.331 µM)	>16	8 (≈ 10.6 µM)
CC[C@H]1OC(=O)[C@H](C)C(=O)[C@H](C)[C@@H](O[C@@H]2O[C@H](C)C[C@H](N(C)C)[C@H]2O)[C@](C)(OC(=O)NCc2ccc(-c3nccc(C)n3)cc2)C[C@@H](C)C(=O)[C@H](C)[C@H]2NC(=O)O[C@@]21C [Compound 69]	0.03 µg/mL (≈ 0.0364 µM)	0.5 (≈ 0.607 µM)	0.12 (≈ 0.146 µM)	>16	8 (≈ 9.71 µM)
CC[C@H]1OC(=O)[C@H](C)C(=O)[C@H](C)[C@@H](O[C@@H]2O[C@H](C)C[C@H](N(C)C)[C@H]2O)[C@](C)(OC(=O)NC/C=C/c2ccccc2)C[C@@H](C)C(=O)[C@H](C)[C@H]2NC(=O)O[C@@]21C [Compound 4]	0.03 µg/mL (≈ 0.0396 µM)	0.25 (≈ 0.33 µM)	0.12 (≈ 0.158 µM)	>16	1 (≈ 1.32 µM)
CC[C@H]1OC(=O)[C@H](C)C(=O)[C@H](C)[C@@H](O[C@@H]2O[C@H](C)C[C@H](N(C)C)[C@H]2O)[C@](C)(OC(=O)NCc2ccc(-n3cc(C)cn3)cc2)C[C@@H](C)C(=O)[C@H](C)[C@H]2NC(=O)O[C@@]21C [Compound 64]	0.03 µg/mL (≈ 0.0369 µM)	1 (≈ 1.23 µM)	0.12 (≈ 0.148 µM)	>16	4 (≈ 4.93 µM)
CC[C@H]1OC(=O)[C@H](C)C(=O)[C@H](C)[C@@H](O[C@@H]2O[C@H](C)C[C@H](N(C)C)[C@H]2O)[C@](C)(OC(=O)NC/C=C/c2ccc(-c3ccc([N+](=O)[O-])cn3)cc2)C[C@@H](C)C(=O)[C@H](C)[C@H]2NC(=O)O[C@@]21C [Compound 45]	0.25 µg/mL (≈ 0.284 µM)	1 (≈ 1.14 µM)	0.5 (≈ 0.568 µM)	>16	4 (≈ 4.55 µM)
CC[C@H]1OC(=O)[C@H](C)C(=O)[C@H](C)[C@@H](O[C@@H]2O[C@H](C)C[C@H](N(C)C)[C@H]2O)[C@](C)(OC(=O)NCc2ccc(-n3ccnc3)cc2)C[C@@H](C)C(=O)[C@H](C)[C@H]2NC(=O)O[C@@]21C [Compound 8]	0.03 µg/mL (≈ 0.0376 µM)	1 (≈ 1.25 µM)	0.12 (≈ 0.15 µM)	16 (≈ 20.1 µM)	4 (≈ 5.01 µM)
CC[C@H]1OC(=O)[C@H](C)C(=O)[C@H](C)[C@@H](O[C@@H]2O[C@H](C)C[C@H](N(C)C)[C@H]2O)[C@](C)(OC(=O)NC/C=C/c2cccc(-c3ncccn3)c2)C[C@@H](C)C(=O)[C@H](C)[C@H]2NC(=O)O[C@@]21C [Compound 66]	0.06 µg/mL (≈ 0.0718 µM)	0.5 (≈ 0.598 µM)	0.12 (≈ 0.144 µM)	>16	4 (≈ 4.78 µM)
CC[C@H]1OC(=O)[C@H](C)C(=O)[C@H](C)[C@@H](O[C@@H]2O[C@H](C)C[C@H](N(C)C)[C@H]2O)[C@](C)(OC(=O)NCC=C(c2ccccc2)c2ccccc2)C[C@@H](C)C(=O)[C@H](C)[C@H]2NC(=O)O[C@@]21C [Compound 54]	0.12 µg/mL (≈ 0.144 µM)	1 (≈ 1.2 µM)	0.5 (≈ 0.6 µM)	>16	2 (≈ 2.4 µM)
CC[C@H]1OC(=O)[C@H](C)C(=O)[C@H](C)[C@@H](O[C@@H]2O[C@H](C)C[C@H](N(C)C)[C@H]2O)[C@](C)(OC(=O)NCc2ccc(-c3cncnc3)cc2)C[C@@H](C)C(=O)[C@H](C)[C@H]2NC(=O)O[C@@]21C [Compound 28]	0.03 µg/mL (≈ 0.037 µM)	0.25 (≈ 0.309 µM)	0.06 (≈ 0.0741 µM)	16 (≈ 19.8 µM)	4 (≈ 4.94 µM)
CC[C@H]1OC(=O)[C@H](C)C(=O)[C@H](C)[C@@H](O[C@@H]2O[C@H](C)C[C@H](N(C)C)[C@H]2O)[C@](C)(OC(=O)NC/C=C/c2ccc(-n3cccn3)cc2)C[C@@H](C)C(=O)[C@H](C)[C@H]2NC(=O)O[C@@]21C [Compound 18]	0.03 µg/mL (≈ 0.0364 µM)	0.25 (≈ 0.303 µM)	0.06 (≈ 0.0728 µM)	16 (≈ 19.4 µM)	4 (≈ 4.85 µM)
CC[C@H]1OC(=O)[C@H](C)C(=O)[C@H](C)[C@@H](O[C@@H]2O[C@H](C)C[C@H](N(C)C)[C@H]2O)[C@](C)(OC(=O)NC/C=C/c2ccc([N+](=O)[O-])cc2)C[C@@H](C)C(=O)[C@H](C)[C@H]2NC(=O)O[C@@]21C [Compound 15]	0.03 µg/mL (≈ 0.0374 µM)	0.12 (≈ 0.149 µM)	0.06 (≈ 0.0747 µM)	4 (≈ 4.98 µM)	2 (≈ 2.49 µM)
CC[C@H]1OC(=O)[C@H](C)C(=O)[C@H](C)[C@@H](O[C@@H]2O[C@H](C)C[C@H](N(C)C)[C@H]2O)[C@](C)(OC(=O)NC/C=C/C=C/c2cccc(-n3cncn3)n2)C[C@@H](C)C(=O)[C@H](C)[C@H]2NC(=O)O[C@@]21C [Compound 50]	≦0.015 μg/mL	0.25 (≈ 0.293 µM)	0.06 (≈ 0.0704 µM)	16 (≈ 18.8 µM)	2 (≈ 2.35 µM)
CC[C@H]1OC(=O)[C@H](C)C(=O)[C@H](C)[C@@H](O[C@@H]2O[C@H](C)C[C@H](N(C)C)[C@H]2O)[C@](C)(OC(=O)NCc2ccc(-n3cncn3)cc2)C[C@@H](C)C(=O)[C@H](C)[C@H]2NC(=O)O[C@@]21C [Compound 10]	0.03 µg/mL (≈ 0.0375 µM)	1 (≈ 1.25 µM)	0.25 (≈ 0.313 µM)	16 (≈ 20 µM)	4 (≈ 5.01 µM)
